The clearance is a measure of how efficiently the substance is removed, as volume per time. What is called bioavailability is dose-corrected exposure relative to a reference, in per cent.

The record followed here is US9708266B2, “Cyclohexyl pyridine derivative” (priority 2014, dated 2017).

The target of one series is human NK1 receptor (Homo sapiens (Human), UniProt P25103). Briefly: Affinity for human NK1 receptor (125I-substance P receptor binding test). As to conditions: membrane fraction of human NK1 receptor-expressing 293T cells; read-out: IC50 (concentration required for 50% inhibition of 125I-substance P binding). On the procedure:
Affinity for Human NK1 Receptor
PCR was performed using human adult normal tissue-derived brain cDNA (BioChain) as the template, with the forward primer of SEQ ID NO:1 and the reverse primer of SEQ ID NO:2, using a PCR enzyme, PrimeSTAR Max DNA Polymerase or PrimeSTAR GXL DNA Polymerase (registered trademark, Takara Bio). The amplified product was inserted into a plasmid (pCR-BluntII-TOPO (registered trademark), Life Technologies) using Zero Blunt PCR Cloning Kit (registered trademark, Life Technologies). By a general method, Escherichia coli (One Shot TOP10 competent cells, Life Technologies) was transformed by the plasmid into which the amplified product had been inserted. The Escherichia coli cells were cultured on an LB agar medium containing 50 μg/mL kanamycin for a day. After the culture, a colony was selected and cultured in an LB medium containing 50 μg/mL of kanamycin. After the culture, the plasmid was purified using Quantum Prep Plasmid Miniprep Kit (Bio-Rad). The plasmid was double digested for about two hours using restriction enzymes, XhoI and HindIII (New England Biolabs). Then, electrophoresis using 1% agarose gel was performed, and the fragment that was cleaved was collected and purified using TaKaRa RICOCHIP (Takara Bio). […]

For a further series, the target named is NK1 receptor (Meriones unguiculatus (Mongolian jird) (Gerbillus unguiculatus), UniProt Q5DUB1). Briefly: Effect on GR73632-induced foot-tapping. Format: in vivo. As to conditions: male gerbil, 0.1 mg/kg iv, GR73632 icv after four hours. As for the experimental part: The test compound solution was prepared by dissolving the test compound in a vehicle (a mixture of 50% N,N-dimethylacetamide (Wako Pure Chemical Industries), 30% propylene glycol (Wako Pure Chemical Industries), 4% 2-hydroxypropyl-[…] (Wako Pure Chemical Industries) and 16% distilled water).
A male gerbil (Japan SLC) was anesthetized with isoflurane, and 0.1 mg/kg of a test compound was administered from the jugular vein. After four hours, GR73632 (5 pmol/5 μl saline), which is an NK1 receptor agonist, was administered into the cerebral ventricle at the part 1 mm lateral to and 4.5 mm below the bregma in the head, under anesthesia with isoflurane. After the administration, the gerbil was moved to an observation cage, and the foot-tapping period during 30 minutes after the recovery of the righting reflex was measured. The foot-tapping inhibition rate (%) of each test compound was calculated by the following equation. Foot-tapping inhibition rate (%)={1−(Foot-tapping period when test compound was administered)/(Foot-tapping period when solvent was administered)}×100 (2) Measurement of Drug Concentrations

Series [1] is described as follows: Ferret pharmacokinetic test. The class given is in vivo. As to conditions: male ferret, plasma. On the procedure: Ferret Pharmacokinetic Test
The test compound solution for intravenous administration was prepared by dissolving the test compound in a vehicle (a mixture of 50% N,N-dimethylacetamide (Wako Pure Chemical Industries), 30% propylene glycol (Wako Pure Chemical Industries), 4% 2-hydroxypropyl-β-cyclodextrin (Wako Pure Chemical Industries) and 16% distilled water). As an oral administration solution, the suspension (0.5% methylcelluose) was used.
Under anesthesia with isoflurane, 0.1 mg/kg of the test compound was intravenously administered to a male ferret (Marshall BioResources Japan) from the femoral vein. In the case of oral administration, 1 mg/kg of the test compound was orally administered to an awake animal. After the administration of the test compound, blood samples were taken sequentially from the brachial cephalic vein up to 7 days after the administration. Through a quantitative analysis using liquid chromatography-mass spectrometry (LC/MS), the concentrations of the test compound in the plasma were measured.
In the tables, Ex. No. means the Example number. t1/2, CLtot and Vss are the half-life, the total body clearance and the steady-state volume of distribution, based on the plasma concentrations in the case of intravenous administration, respectively. Cmax, AUC and BA are the maximum plasma test compound concentration, the area under the plasma test compound concentration-time curve within 7 days after the administration and the bioavailability, in the case of oral administration, respectively.

For series [2], the system named is cisplatin-induced acute and delayed emetic response. Description: Effect on cisplatin-induced acute and delayed emetic response. As to conditions: male ferret, 0.01 or 0.1 mg/kg iv, cisplatin 5 mg/kg ip. Format: in vivo. On the procedure:
The vertical axes show the number of retching and vomiting (Retches+Vomits) (the mean+standard error of 3 examples of control group, the mean+standard error of 3 examples of the group intravenously administered with 0.01 mg/kg, and the mean+standard error of 3 examples of the group intravenously administered with 0.1 mg/kg).
Effect on Cisplatin-Induced Acute and Delayed Emetic Response
The test compound solution was prepared by dissolving the test compound in a vehicle (a mixture of 50% N,N-dimethylacetamide (Wako Pure Chemical Industries), 30% propylene glycol (Wako Pure Chemical Industries), 4% 2-hydroxypropyl-β-cyclodextrin (Wako Pure Chemical Industries) and 16% distilled water). The vehicle only was administered to the control group.
Under anesthesia with isoflurane, 0.01 mg/kg or 0.1 mg/kg of the test compound was intravenously administered to a male ferret (Marshall BioResources Japan) from the jugular vein. Cisplatin in saline, which was heated to 40-50° C., was intraperitoneally administered at 5 mg/kg one hour after the drug administration.

Chain of NK1 receptor (Q5DUB1 whole entry): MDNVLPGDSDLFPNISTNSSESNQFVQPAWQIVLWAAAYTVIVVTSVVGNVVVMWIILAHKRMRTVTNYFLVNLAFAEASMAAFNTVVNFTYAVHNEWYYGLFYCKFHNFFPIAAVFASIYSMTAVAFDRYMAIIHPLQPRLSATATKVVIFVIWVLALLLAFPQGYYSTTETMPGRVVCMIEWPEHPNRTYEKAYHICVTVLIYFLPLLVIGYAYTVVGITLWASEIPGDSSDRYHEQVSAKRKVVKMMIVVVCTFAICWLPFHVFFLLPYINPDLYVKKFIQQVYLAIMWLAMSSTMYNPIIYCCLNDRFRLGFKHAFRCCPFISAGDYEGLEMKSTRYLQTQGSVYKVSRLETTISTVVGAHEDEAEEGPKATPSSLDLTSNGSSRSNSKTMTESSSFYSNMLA
Chain of human NK1 receptor (P25103 whole entry): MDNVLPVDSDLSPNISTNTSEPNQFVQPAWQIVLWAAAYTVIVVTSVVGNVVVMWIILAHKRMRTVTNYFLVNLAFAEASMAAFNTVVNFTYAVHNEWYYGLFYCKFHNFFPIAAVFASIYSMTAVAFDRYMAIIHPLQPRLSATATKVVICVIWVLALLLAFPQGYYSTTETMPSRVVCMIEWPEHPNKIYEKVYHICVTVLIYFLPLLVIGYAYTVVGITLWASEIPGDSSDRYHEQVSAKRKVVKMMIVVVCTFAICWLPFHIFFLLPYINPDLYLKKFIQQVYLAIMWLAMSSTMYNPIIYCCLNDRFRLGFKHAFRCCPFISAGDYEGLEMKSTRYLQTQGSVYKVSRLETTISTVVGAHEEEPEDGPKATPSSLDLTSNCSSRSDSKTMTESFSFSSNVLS

As to `Cc1cc(F)ccc1-c1cc(C2CCC(CCC(=O)O)CC2)ncc1N(C)C(=O)C(C)(C)c1cc(C(F)(F)F)cc(C(F)(F)F)c1` (centres unmarked) [Example 2, 3-{4-[5-{[2-(3,5-Bistrifluoromethylphenyl)-2-methylpropionyl]methylamino}-4-(4-fluoro-2-methylphenyl)pyridin-2-yl]cyclohexyl}propionic acid], on human NK1 receptor, the IC50 was determined as 1.78 nM. Moreover, the “Inhibition (foot-tapping inhibition rate)” value at NK1 receptor was 100%.
In the case of `Cc1cc(F)ccc1-c1cc([C@H]2CC[C@H](CC(=O)O)CC2)ncc1N(C)C(=O)C(C)(C)c1cc(C(F)(F)F)cc(C(F)(F)F)c1` [Example 13, trans-{4-[5-{[2-(3,5-Bistrifluoromethylphenyl)-2-methylpropionyl]methylamino}-4-(4-fluoro-2-methylphenyl)pyridin-2-yl]cyclohexyl}acetic acid], the “Inhibition (foot-tapping inhibition rate)” value at NK1 receptor is given as 100%. Also, the clearance in series [1] (0.1 mg/kg intravenous, read-out: CL tot (total body clearance)) worked out at 0.13 mL/min/kg. Besides, in series [1] (0.1 mg/kg intravenous, read-out: Vss (steady-state volume of distribution)), the Vd was found to be 0.401 L/kg. In addition, the half-life in series [1] (0.1 mg/kg intravenous, read-out: t1/2 (half-life)) amounted to 41.5 h. For the same molecule, the AUC in series [1] (1 mg/kg oral, read-out: AUC (area under the plasma concentration-time curve within 7 days) (converted)) is 88200 ng·h/mL. Also, the bioavailability in series [1] (1 mg/kg oral, read-out: BA (bioavailability)) is 66%. The Cmax in series [1] (1 mg/kg oral, read-out: Cmax (maximum plasma test compound concentration)) amounted to 1260 ng/mL. The “number of retching and vomiting, delayed phase” value in series [2] (24 hours to 72 hours) was “inhibition of the number of retching and vomiting was observed”. For the same molecule, the “number of retching and vomiting, acute phase” value in series [2] (up to 24 hours) is “inhibition of the number of retching and vomiting was observed”.
